Source: US11389453B2, “Compositions and methods for treating chemosensory dysfunction” (Cyrano Therapeutics, Inc., priority 2005, dated 2022)
Entries after “also recorded” stand apart in the source; their conditions may differ. Marks after values point to notes of the source that are not given here.

Columns and labels:
Format in all cases: in vivo, human
[1] = test system: TNFα; test: TNFα in nasal mucus of patients with hyposmia treated with theophylline; conditions: for TNF∝: nasal mucus, patients with hyposmia (24)
From the text: (§1) Table 35 illustrates detection and measurement of TNFα, and soluble TNF receptors 1 and 2, moieties in the nasal mucus. TNFα, and soluble TNF receptors 1 and 2 increase in systems undergoing excessive apoptosis.
(§2) These studies were extended to reveal levels of TNFα in nasal mucus of patients with graded loss of smell following treatment with theophylline (Table 36). Smell loss was graded such that loss was greatest in Type I hyposmia, less in Type II and still less in Type III (I>II>III). […] Following treatment which was effective in restoring smell function toward normal, levels of TNFα decreased in each patient group consistent with each increased dose of theophylline which generated a dose dependent increase in smell function—as theophylline dose increased, smell function increased and TNFα levels decreased. In Type I hyposmia TNFα decreased 40% after treatment with 400 mg theophylline and 57% after treatment 600 mg. In Type II hyposmia TNFα decreased 11% after treatment with 600 mg theophylline.

[2] = test system: TRAIL; test: TRAIL in nasal mucus of patients with hyposmia before and after treatment with theophylline; conditions: for TRAIL: nasal mucus, patients with hyposmia (5)
[3] = test system: patients with hyposmia; test: Smell function (olfactory acuity) in patients with hyposmia treated with theophylline
From the text: as §2

[4] = test system: Nitric Oxide (NO); test: NO in nasal mucus of patients with hyposmia before and after theophylline treatment; conditions: for NO: nasal mucus, patients (12)
From the text: Table 33 in the examples illustrates NO in nasal mucus in patients treated with theophylline in various doses before and after drug treatment. NO levels in nasal mucus changed following the treatment of patients with smell loss. […] Its continual measurement during treatment of the disorders helps in monitoring efficacy of therapy. The detection of NO in nasal mucus provides a non invasive method of diagnosing various diseases related to human physiology and pathology. The methods of the present invention include treatment of diseases by modulating the concentrations of NO by use of drugs or agents. The method of treatment is preferably by nasal administration.
Table 33 illustrates NO levels in nasal mucus in patients treated with Theophylline in various doses before and after drug treatment. NO levels in nasal mucus changed following the treatment of patients with smell loss. […] Its continual measurement during treatment of these disorders helps in monitoring efficacy of therapy. The detection of NO in nasal mucus provides a non invasive method of diagnosing various diseases related to human physiology and pathology.

[5] = test system: TNFR 2; test: TNFR 2 in nasal mucus of patients with hyposmia treated with theophylline; conditions: for TNFR2: nasal mucus, patients with hyposmia (18)
Experimental: as §1
With a dose dependent increase of theophylline treatment levels of TNFR 2 in nasal mucus decreased consistent with a dose dependent increase in smell function. Levels of TNFR 2 in patients with Type I and Type II hyposmia decreased almost 50% on 600 mg theophylline consistent with their greatest return of smell function. At this highest level of theophylline levels of TNFR 2 were decreased in relationship to the decrease in smell function-TNFR 2, Type I>Type II>Type III; smell loss, Type I>Type II>Type III.

[6] = test system: TNFR 1; test: TNFR 1 in nasal mucus of patients with hyposmia treated with theophylline; conditions: for TNFR1: nasal mucus, patients with hyposmia (19)
From the text: as §1
With increased smell loss pre treatment TNFR 1 levels were increased in nasal mucus in patients with Type I hyposmia (whose smell loss was increased over that of patients with Type II hyposmia). […] The greater was the smell loss, the higher was the level of TNFR 1.

[7] = patients with hyposmia, stepwise increase in theophylline dose
[8] = hyposmia Type I (7), theophylline 200 mg orally daily
[9] = hyposmia Type I (7), theophylline 600 mg orally daily
[10] = hyposmia Type II (10), theophylline 200 mg orally daily
[11] = hyposmia Type II (10), theophylline 400 mg orally daily
[12] = hyposmia Type II (10), theophylline 600 mg orally daily
[13] = hyposmia Type III (2), theophylline 600 mg orally daily

SMILES: Cn1c(=O)c2[nH]cnc2n(C)c1=O [theophylline]
- TNFα decrease in nasal mucus ([1]; Type I hyposmia, 400 mg theophylline): 40%
- TNFα decrease in nasal mucus ([1]; Type I hyposmia, 600 mg theophylline): 57%
- TNFα decrease in nasal mucus ([1]; Type II hyposmia, 600 mg theophylline): 11%
- TNF∝ in nasal mucus ([1]; hyposmia Type I (8), theophylline 400 mg orally daily): 15.6
- TNF∝ in nasal mucus ([1]; hyposmia Type I (8), theophylline 600 mg orally daily): 11.2 ± 4.4^
- TNF∝ in nasal mucus ([1]; hyposmia Type II (13), theophylline 200 mg orally daily): 14.9 ± 2.5
- TNF∝ in nasal mucus ([1]; hyposmia Type II (13), theophylline 400 mg orally daily): 11.5 ± 3.2
- TNF∝ in nasal mucus ([1]; hyposmia Type II (13), theophylline 600 mg orally daily): 4.3 ± 0.8^a
- TNF∝ in nasal mucus ([1]; hyposmia Type III (3), theophylline 600 mg orally daily): 1.2 ± 0.7^bc
- TNF∝ ([1]; Theophylline treatment 200): 20.0 ± 2.8 µg/mL
- TNF∝ ([1]; Theophylline treatment 400): 12.1 ± 2.1 µg/mL
- TNF∝ ([1]; Theophylline treatment 600): 7.4 ± 1.8 µg/mL
- TNFα in nasal mucus, change after treatment [1, 7]: significant dose-response decrease
- TRAIL ([2]; theophylline 200 mg): 855 µg/mL
- TRAIL ([2]; theophylline 400 mg): 791 µg/mL
- TRAIL ([2]; theophylline 600 mg): 247 µg/mL
- TRAIL in nasal mucus, change after treatment ([2]; patients with hyposmia, before vs after theophylline at various doses): dose-dependent decrease
- smell function ([3]; 600 mg theophylline): restored smell function to or toward normal
- smell function ([3]; theophylline at various (graded) doses): returned smell function to normal in a dose-dependent manner; also recorded: graded increases in smell function; also recorded: stepwise improvement in olfactory acuity
- NO ([4]; Theophylline 200 mg): 0.25 ± 0.01 µg/mL
- NO ([4]; Theophylline 400 mg): 0.40 ± 0.06 µg/mL
- NO ([4]; Theophylline 600 mg): 0.59 ± 0.16 µg/mL
- NO in nasal mucus, change after treatment ([4]; patients with hyposmia, theophylline in graded doses): increases in nasal mucus NO
- TNFR 2 decrease in nasal mucus ([5]; Type I and Type II hyposmia, 600 mg theophylline): ~50%
- TNFR2 in nasal mucus [5, 8]: 3,100 ± 1,184
- TNFR2 in nasal mucus [5, 9]: 1,491 ± 1,102
- TNFR2 in nasal mucus [5, 10]: 1,378 ± 480^
- TNFR2 in nasal mucus [5, 11]: 1,014 ± 272
- TNFR2 in nasal mucus [5, 12]: 553 ± 158
- TNFR2 in nasal mucus [5, 13]: 436 ± 443
- TNFR2 ([5]; Theophylline treatment 200): 1,952 ± 339
- TNFR2 ([5]; Theophylline treatment 400): 949 ± 180^c
- TNFR2 ([5]; Theophylline treatment 600): 916 ± 344
- TNFR 2 in nasal mucus, change after treatment [5, 7]: significant dose-response decrease; also recorded: decreased
- TNFR 1 in nasal mucus [6, 8]: 6,521 ± 1,304^c
- TNFR 1 in nasal mucus ([6]; hyposmia Type I (7), theophylline 400 mg orally daily): 1,498
- TNFR 1 in nasal mucus [6, 9]: 1,832 ± 704^a
- TNFR 1 in nasal mucus [6, 10]: 1,462 ± 371 ^
- TNFR 1 in nasal mucus [6, 11]: 1,087 ± 335
- TNFR 1 in nasal mucus [6, 12]: 862 ± 335
- TNFR 1 in nasal mucus [6, 13]: 585 ± 335
- TNFR1 ([6]; Theophylline treatment 200): 3,148 ± 663
- TNFR1 ([6]; Theophylline treatment 400): 1,146 ± 220^b
- TNFR1 ([6]; Theophylline treatment 600): 1,220 ± 286^ab
- TNFR 1 in nasal mucus, change after treatment [6, 7]: significant dose-response decrease; also recorded: TNFR 1 levels decreased in Type I
